Results reported in patent publication US20180110223A1, “PHENOXY- OR PYRIDIN-2-YLOXY-AMINOTRIAZINE COMPOUNDS AND THEIR USE AS HERBICIDES” (BASF SE, priority 2015, published 2018).

Experiments:
Type in all cases: in vivo
Echinocloa crus-galli [1] = assay: greenhouse post-emergence treatment, ECHCG; conditions: scale from 0 to 100
From the text: (§1) The culture containers used were plastic flowerpots containing loamy sand with approximately 3.0% of humus as the substrate. The seeds of the test plants were sown separately for each species.
(§2) For the post-emergence treatment, the test plants were first grown to a height of 3 to 15 cm, depending on the plant habit, and only then treated with the active ingredients which had been suspended or emulsified in water. For this purpose, the test plants were either sown directly and grown in the same containers, or they were first grown separately as seedlings and transplanted into the test containers a few days prior to treatment.
(§3) Depending on the species, the plants were kept at 10-25° C. or 20-35° C., respectively.
(§4) The test period extended over 2 to 4 weeks. During this time, the plants were tended, and their response to the individual treatments was evaluated.
(§5) Evaluation was carried out using a scale from 0 to 100. 100 means no emergence of the plants, or complete destruction of at least the aerial moieties, and 0 means no damage, or normal course of growth.
(§6) The plants used in the greenhouse experiments were of the following species: […]

Setaria faberi [2] = assay: greenhouse post-emergence treatment, SETFA; conditions: scale from 0 to 100
From the text: as §1, §2, §3, §4, §5, §6

Amaranthus retroflexus [3] = assay: greenhouse post-emergence treatment, AMARE; conditions: scale from 0 to 100
From the text: as §1, §2, §3, §4, §5, §6

Viola arvensis = assay: greenhouse post-emergence treatment, VIOAR; conditions: 1000 g/ha, scale from 0 to 100
From the text: as §1, §2, §3, §4, §5, §6

Alopecurus agrestis = assay: greenhouse post-emergence treatment, ALOMY; conditions: 500 g/ha, scale from 0 to 100
From the text: as §1, §2, §3, §4, §5, §6

Setaria faberi [4] = assay: greenhouse pre-emergence treatment, SETFA; conditions: scale from 0 to 100
From the text: as §1
(§7) For the pre-emergence treatment, the active ingredients, which had been suspended or emulsified in water, were applied directly after sowing by means of finely distributing nozzles. The containers were irrigated gently to promote germination and growth and subsequently covered with transparent plastic hoods until the plants had rooted. This cover caused uniform germination of the test plants, unless this had been impaired by the active ingredients.
as §3, §4, §5, §6

Echinocloa crus-galli [5] = assay: greenhouse pre-emergence treatment, ECHCG; conditions: scale from 0 to 100
From the text: as §1, §7, §3, §4, §5, §6

Abutilon theophrasti [6] = assay: greenhouse pre-emergence treatment, ABUTH; conditions: 1000 g/ha, scale from 0 to 100
From the text: as §1, §7, §3, §4, §5, §6

Amaranthus retroflexus [7] = assay: greenhouse pre-emergence treatment, AMARE; conditions: scale from 0 to 100
From the text: as §1, §7, §3, §4, §5, §6

Polygonum convolvulus = assay: greenhouse post-emergence treatment, POLCO; conditions: 125 g/ha, scale from 0 to 100
From the text: as §1, §2, §3, §4, §5, §6

Abutilon theophrasti [8] = assay: greenhouse post-emergence treatment, ABUTH; conditions: scale from 0 to 100
From the text: as §1, §2, §3, §4, §5, §6

For Cc1ncoc1-c1nc(N)nc(Oc2c(F)cc(F)c(F)c2F)n1 [Example 38], which “herbicidal activity against ECHCG” value (Echinocloa crus-galli [1]; 1000 g/ha) is on record?
The value was “good (a good herbicidal activity is given at values of at least 70)”.

How did the “herbicidal activity against SETFA” value (Setaria faberi [2]; 500 g/ha) turn out when CC(F)c1nc(N)nc(Oc2c(F)c(F)c(F)c(I)c2F)n1 (stereo not drawn) [Example 39] was run?
Its value is “very good (a very good herbicidal activity is given at values of at least 85)”.

And the “herbicidal activity against ECHCG” value (Echinocloa crus-galli [1]; 500 g/ha)?
Its value is “good (a good herbicidal activity is given at values of at least 70)”.

Which results are given for CC(C)(F)c1nc(N)nc(Oc2c(F)c(F)c(F)c(F)c2F)n1 [Example 2]?
herbicidal activity against SETFA (Setaria faberi [2]; 3000 g/ha): very good (a very good herbicidal activity is given at values of at least 85); herbicidal activity against ECHCG (Echinocloa crus-galli [1]; 3000 g/ha): very good (a very good herbicidal activity is given at values of at least 85)

Which “herbicidal activity against SETFA” value (Setaria faberi [2]; 1000 g/ha) does the source give for CC(F)c1nc(N)nc(Oc2c(F)ccc(F)c2F)n1 (stereo not drawn) [Example 8] here?
The value was “very good (a very good herbicidal activity is given at values of at least 85)”.

What about the “herbicidal activity against AMARE” value (Amaranthus retroflexus [3]; 1000 g/ha) of the same compound?
The value was “very good (a very good herbicidal activity is given at values of at least 85)”.

And the “herbicidal activity against VIOR” value (Viola arvensis)?
Its value is “very good (a very good herbicidal activity is given at values of at least 85)”.

CC(C)(C#N)c1nc(N)nc(Oc2c(F)c(F)c(F)c(F)c2F)n1 [Example 22] was tested. Which “herbicidal activity against ALOMY” value (Alopecurus agrestis) did it give?
Its value is “good (a good herbicidal activity is given at values of at least 70)”.

For CCC(F)c1nc(N)nc(Oc2c(F)c(F)c(F)c(F)c2F)n1 (stereo not drawn) [Example 24], which “herbicidal activity against SETFA” value (Setaria faberi [4]; 1000 g/ha) is on record?
The value was “very good (a very good herbicidal activity is given at values of at least 85)”.

What about the “herbicidal activity against ECHCG” value (Echinocloa crus-galli [5]; 1000 g/ha) of the same compound?
Its value is “very good (a very good herbicidal activity is given at values of at least 85)”.

And the “herbicidal activity against ABUTH” value (Abutilon theophrasti [6])?
The value was “very good (a very good herbicidal activity is given at values of at least 85)”.

How did the “herbicidal activity against ECHCG” value (Echinocloa crus-galli [1]; 500 g/ha) turn out when Nc1nc(Oc2c(F)cc(F)c(F)c2F)nc(-c2cccs2)n1 [Example 25] was run?
The value was “good (a good herbicidal activity is given at values of at least 70)”.

Which “herbicidal activity against AMARE” value (Amaranthus retroflexus [3]; 500 g/ha) does the source give for Nc1nc(Oc2c(F)cc(F)c(F)c2F)nc(-c2ccc(Cl)s2)n1 [Example 27] here?
The value was “herbicidal activity”.

What does the source list for CC(F)c1nc(N)nc(Oc2c(F)cc(F)c(F)c2F)n1 (stereo not drawn) [Example 9]?
herbicidal activity against SETFA (Setaria faberi [2]; 1000 g/ha): very good (a very good herbicidal activity is given at values of at least 85); herbicidal activity against AMARE (Amaranthus retroflexus [3]; 1000 g/ha): very good (a very good herbicidal activity is given at values of at least 85); herbicidal activity against VIOR (Viola arvensis): very good (a very good herbicidal activity is given at values of at least 85)

For CCC(C)(F)c1nc(N)nc(Oc2c(F)cc(F)c(F)c2F)n1 (stereo not drawn) [Example 19], which “herbicidal activity against AMARE” value (Amaranthus retroflexus [3]; 500 g/ha) is on record?
The value was “very good (a very good herbicidal activity is given at values of at least 85)”.

How did the “herbicidal activity against SETFA” value (Setaria faberi [2]; 1000 g/ha) turn out when Nc1nc(Oc2c(F)cc(F)c(F)c2F)nc(C(F)(F)F)n1 [Example 11] was run?
The value was “very good (a very good herbicidal activity is given at values of at least 85)”.

Which “herbicidal activity against AMARE” value (Amaranthus retroflexus [3]; 1000 g/ha) does the source give for CC(C)(F)c1nc(N)nc(Oc2c(F)ccc(F)c2F)n1 [Example 5] here?
The value was “very good (a very good herbicidal activity is given at values of at least 85)”.

Which results are given for Nc1nc(Oc2c(F)cc(F)c(F)c2F)nc([C@H]2CCCO2)n1 [Example 34]?
herbicidal activity against SETFA (Setaria faberi [4]; 500 g/ha): good (a good herbicidal activity is given at values of at least 70); herbicidal activity against AMARE (Amaranthus retroflexus [7]; 500 g/ha): good (a good herbicidal activity is given at values of at least 70)

With CCC(F)c1nc(N)nc(Oc2c(F)cc(F)c(F)c2F)n1 (stereo not drawn) [Example 23] as the compound, how does the “herbicidal activity against SETFA” value (Setaria faberi [4]; 1000 g/ha) read?
Its value is “very good (a very good herbicidal activity is given at values of at least 85)”.

And the “herbicidal activity against ECHCG” value (Echinocloa crus-galli [5]; 1000 g/ha)?
Its value is “very good (a very good herbicidal activity is given at values of at least 85)”.

What about the “herbicidal activity against AMARE” value (Amaranthus retroflexus [7]; 1000 g/ha) of the same compound?
The value was “very good (a very good herbicidal activity is given at values of at least 85)”.

Which results are given for CC(C)C(F)c1nc(N)nc(Oc2c(F)cc(F)c(F)c2F)n1 (stereo not drawn) [Example 42]?
herbicidal activity against SETFA (Setaria faberi [4]; 500 g/ha): very good (a very good herbicidal activity is given at values of at least 85); herbicidal activity against ECHCG (Echinocloa crus-galli [5]; 500 g/ha): good (a good herbicidal activity is given at values of at least 70); herbicidal activity against AMARE (Amaranthus retroflexus [7]; 500 g/ha): good (a good herbicidal activity is given at values of at least 70)

Which “herbicidal activity against POLCO” value (Polygonum convolvulus) does the source give for Nc1nc(Oc2c(F)cc(F)c(F)c2F)nc(C2CCCO2)n1 (stereo not drawn) [Example 33] here?
The value was “very good (a very good herbicidal activity is given at values of at least 85)”.

Which “herbicidal activity against ABUTH” value (Abutilon theophrasti [8]; 1000 g/ha) does the source give for Cc1ccc(-c2nc(N)nc(Oc3c(F)cc(F)c(F)c3F)n2)o1 [Example 32] here?
Its value is “very herbicidal activity”.

With CC(F)c1nc(N)nc(Oc2cccc(F)c2F)n1 (stereo not drawn) [Example 7] as the compound, how does the “herbicidal activity against SETFA” value (Setaria faberi [2]; 1000 g/ha) read?
Its value is “very good (a very good herbicidal activity is given at values of at least 85)”.

What about the “herbicidal activity against ECHCG” value (Echinocloa crus-galli [1]; 1000 g/ha) of the same compound?
Its value is “very good (a very good herbicidal activity is given at values of at least 85)”.

With CC(F)c1nc(N)nc(Oc2c(F)c(F)cc(F)c2F)n1 (stereo not drawn) [Example 1, 4-(1-fluoroethyl)-6-(2,3,5,6-tetrafluorophenoxy)-1,3,5-triazin-2-amine] as the compound, how does the “herbicidal activity against SETFA” value (Setaria faberi [2]; 3000 g/ha) read?
Its value is “very good (a very good herbicidal activity is given at values of at least 85)”.

And the “herbicidal activity against ECHCG” value (Echinocloa crus-galli [1]; 3000 g/ha)?
Its value is “very good (a very good herbicidal activity is given at values of at least 85)”.

And the “herbicidal activity against ABUTH” value (Abutilon theophrasti [8]; 3000 g/ha)?
Its value is “good (a good herbicidal activity is given at values of at least 70)”.

How did the “herbicidal activity against AMARE” value (Amaranthus retroflexus [3]; 500 g/ha) turn out when Nc1nc(Oc2c(F)cc(F)c(F)c2F)nc([C@@H]2CCCO2)n1 [Example 35] was run?
The value was “good (a good herbicidal activity is given at values of at least 70)”.
